Measured values from patent US9834549B2, “3,3-disubstituted-(8-aza-bicyclo[3.2.1]OCT-8-yl)-[5-(1H-pyrazol-4-yl)-thiophen-3-yl]-methanones as inhibitors of 11 (β)-HSD1” (The University Of Edinburgh, priority 2010, dated 2017).

Columns and labels:
[1] = Oral exposure and tissue distribution in rats; assay type: in vivo, male Sprague Dawley rats; conditions: rat, oral 10 mg/kg; for Cmax: male, Sprague Dawley, plasma, read-out: Plasma Cmax (maximum plasma concentration)
Method: The circulating plasma levels and tissue distribution of certain compounds were determined following oral administration of compound (10 mg/kg) to male Sprague Dawley rats. Rats (n=3 per group) were culled at 1, 4 and 6 hours post dosing and trunk blood and tissues (liver, adipose and brain) excised. Blood samples at 30 minutes and 2 hours post dosing were taken by tail nick from the 4 hour and 6 hour rats respectively.
Compound was triple extracted from plasma (prepared from blood by a high speed centrifugation step) spiked with 1 μg of a standard compound using ethyl acetate. Extracts were dried under nitrogen and re-suspended in 60% methanol/40% ammonium acetate (5 mM).
A known weight of tissue was homogenized in 3 volumes Krebs buffer. Compound was triple extracted with ethyl acetate from the supernatant of a low speed spin spiked with 1 μg of a standard compound. Extracts were dried under nitrogen and re-suspended in 60% methanol/40% ammonium acetate (5 mM).
Samples from plasma and tissue were analyzed by TSQ Quantum Discovery Tandem Mass Spectrometer and Surveyor Liquid Chromatogram (Thermo, Hemel-Hempstead, UK). 10 μL of each sample was injected in a mobile phase consisting of 60%:40% methanol:5 mM ammonium acetate at a flow rate of 0.5 mL/minute. The column used was a BDS hypersil, C18, 50×2.1 mm with a 5 μm particle size.
Each compound was tuned with a spray voltage of 3000 V and a capillary temperature of 300° C. and values for tube lens, CID and product ions were determined.
The peak area for each compound and for the internal standard was determined and the concentration of compound per gram of tissue or mL of plasma was calculated by comparison of the peak area ratio to a standard curve.

Pharmacokinetics in rat = assay type: in vivo, male Sprague Dawley rats; conditions: male, Sprague Dawley, intravenous 1 mg/kg and oral 5 mg/kg; for bioavailability: blood, read-out: % F (% bioavailability); for clearance: plasma, read-out: Cl (plasma clearance)
Method: The pharmacokinetic parameters of certain compounds were determined following intravenous (1 mg/kg) and oral (5 mg/kg) administration to male Sprague Dawley rats. Dosing solution was prepared by mixing each compound with 2% DMSO, 38% PEG-400 and 60% (0.9%) NaCl. Solutions were passed through 0.2 μm filters prior to administration.
Following dosing and at appropriate time points, blood samples were taken from a lateral tail vein and transferred into a tube pre-treated with EDTA. Blood samples were analysed for parent compound by LCMS and the quantity of parent compound remaining determined. Non-compartmental analysis was applied to the data using WinNonlin™ software to determine the pharmacokinetic parameters for each compound.

Row | SMILES | Cmax [1] | Liver Cmax (maximum liver concentration) [1] | bioavailability (Pharmacokinetics in rat) | clearance (Pharmacokinetics in rat)
1 | O=C(c1csc(-c2cn[nH]c2)c1)N1C2CCC1CC(O)(c1ncccn1)C2 (centres unmarked) [XX-20, (3-Hydroxy-3-pyrimidin-2-yl-8-aza-bicyclo[3.2.1]oct-8-yl)-[5-(1H-pyrazol-4-yl)-thiophen-3-yl]-methanone] | > 1000 ng/mL | +++ (>5001 +++) | 41 to 100% | < 25 mL/min/kg
2 | O=C(c1csc(-c2cn[nH]c2)c1)N1C2CCC1CC(O)(c1nccs1)C2 (centres unmarked) [XX-29] | 501 to 1000 ng/mL | ++ (3001-5000 ++) | 41 to 100% | < 25 mL/min/kg
